Consider 16 molecules from patent US7091345B2, “Amino-substituted dihydropyrimido[4,5-D]pyrimidinone derivatives” (Hoffmann-La Roche Inc., priority 2002, dated 2006).

Counter-ions that a name gives are not always drawn.

In one data set the target is T1, Lck (p56^lck) (Homo sapiens, UniProt P06239).
T1 construct: purchased Upstate (UBI)
The data set is described as follows: SRC-Inhibitor-Assay, time-resolved fluorescence kinase assay (Lck). The note with it: ATP 5 μM; enzyme 2.5 U/ml; pre-incubation 15 min at 15° C.; read-out: IC 50 (lck). It is filed as biochemical. As for the experimental part:
(§1) The activity of the compounds according to this invention as inhibitors for the src-family tyrosine kinases was shown by using the following assay.
(§2) SRC-Inhibitor-Assay Parameters:
(§3) Assay buffer: 4 mM MgCl2 • 2 mM TCEP • 50 mM HEPES • 0,1% Tween 20 • pH 7.3
(§4) Material: Eu-labelled phosphotyrosine antibody:—for Lck Cisbio Mab PT66-K, for Src EG&G Wallac PT66 Eu-W1024 (all commercially available). Peptides: Ro: NH2-A-E-E-E-I-Y-G-E-F-E-A-K-K-K-K-CONH2, and Ja133-Ro: Ja133-G-Aminocaprylic acid-A-E-E-E-I-Y-G-E-F-E-A-K-K-K-K-CONH2, wherein Ja133 is LightCycler-Red 640-N-hydroxy succinimide ester; whereby both peptides were synthesized by an optimized solid phase peptide synthesis protocol (Merrifield, Fed. Proc. Fed. Amer. Soc. Exp. Biol. 21 (1962) 412) on a Zinsser SMP350 peptide synthesizer. Shortly, the peptide was assembled on 160 mg (22.8 μmol scale) of a Rink-Linker modified polystyrene solid phase by repeatedly conjugating an twenty fold excess of amino acids each protected by temporary piperidine labile Fmoc- and permanent acid labile tert-Bu-, BOC— and Otert-Bu-groups depending on the side chain function. The substrate sequence AEEEIYGEFEAKKKK was N-terminal additionally mounted with the spacer amino acids Aminocaprylic acid and Glycin. After cleavage of the N-terminal temporary protecting group the still attached and protected peptide was labeled with a 1.5 fold amount of LightCycler-Red 640-N-hydroxy succinimide ester (purchased by Roche Diagnostics GmbH) and triethylamine. After 3 hrs. the resin was washed with Dimethylformamide and Isopropanol until the eluates of the blue resin got colourless. […] The substrate was finally isolated by a preparative reverse phase HPLC purification. The purification yielded 12.2 mg RP-HPLC single peak pure blue material (lyophilisate). The identity was proven by MALDI mass spectroscopy [2720.0]. Enzymes: Upstate Lck (p56^lck, active), Upstate Src (p60^c-src, partially purified) were purchased from UBI. Time-resolved Fluorescence Assay: Reader: Perkin Elmer, Wallac Viktor 1420-040 multilabel counter; Liquid handling system: Beckman Coulter, Biomek 2000. ATP, Tween 20, HEPES were purchased from Roche Molecular Biochemicals, MgCl2 and MnCl2 were purchased from Merck Eurolab, TCEP was purchased from Pierce, 384 Well low volume fluorescence plates was purchased from Falcon. Assay Description:
(§5) At first the enzyme is pre-incubated for 15 min. at 15° C. in aqueous solution with corresponding amounts of inhibitors according to this invention. Then the phosphorylation reaction is started by adding a reaction mixture, containing ATP, Peptide and PT66, and subsequent shaking. The proceeding of this reaction is immediately monitored using time resolved fluorescence spectroscopy in a suitable well plate reader.
(§6) The IC50-values can be obtained from the reaction rates by using a non-linear curve fit (Excelfit).

For another data set, the target named is T2, Src (p60^c-src) (Homo sapiens, UniProt P12931).
T2 construct: purchased Upstate (UBI)
T2 sequence (P12931 whole entry): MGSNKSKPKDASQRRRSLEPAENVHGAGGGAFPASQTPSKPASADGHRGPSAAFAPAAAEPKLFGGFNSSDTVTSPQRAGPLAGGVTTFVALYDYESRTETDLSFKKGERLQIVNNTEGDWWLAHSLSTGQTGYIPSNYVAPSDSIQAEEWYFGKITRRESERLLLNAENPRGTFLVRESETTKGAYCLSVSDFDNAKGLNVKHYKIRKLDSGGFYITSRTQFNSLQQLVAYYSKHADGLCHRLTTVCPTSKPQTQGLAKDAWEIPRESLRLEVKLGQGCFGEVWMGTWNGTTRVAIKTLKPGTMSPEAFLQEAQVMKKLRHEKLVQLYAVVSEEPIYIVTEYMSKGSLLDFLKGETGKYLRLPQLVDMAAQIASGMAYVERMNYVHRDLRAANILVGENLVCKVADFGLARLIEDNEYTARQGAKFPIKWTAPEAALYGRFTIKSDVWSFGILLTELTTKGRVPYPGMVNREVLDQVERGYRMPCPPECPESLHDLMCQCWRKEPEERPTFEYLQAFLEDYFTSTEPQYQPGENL
The data set is described as follows: SRC-Inhibitor-Assay, time-resolved fluorescence kinase assay (Src). It is filed as biochemical. Conditions: ATP 5 μM; enzyme 2.5 U/ml; pre-incubation 15 min at 15° C.; read-out: IC 50 (src). The procedure:
as §1, §2, §3, §4, §5, §6

The nature of data set [1]: Pharmacokinetic study in mice, plasma levels after single p.o. dose. It is filed as in vivo. Conditions: male NMRI mice, p.o. single dose 30 mg/kg as micro-suspension, dose-normalised. The procedure: A preferred pharmaceutical preparation was obtained by using the following procedure: • 1. Weigh 4.0 g glass beads in custom made tube GL 25, 4 cm (the beads fill half of the tube). • 2. Add 50 mg compound, disperse with spatulum and vortex. • 3. Add 2 ml gelatin solution (weight beads: gelatin solution=2:1) and vortex. • 4. Cap and wrap in aluminium foil for light protection. • 5. Prepare a counter balance for the mill. • 6. Mill for 4 hours, 20/s in a Retsch mill (for some substances up to 24 hours at 30/s). • 7. Extract suspension from beads with two layers of filter (100 μm) on a filter holder, coupled to a recipient vial by centrifugation at 400 g for 2 min. • 8. Move extract to measuring cylinder. • 9. Repeat washing with small volumes (here 1 ml steps) until final volume is reached or extract is clear. • 10. Fill up to final volume with gelatin and homogenise.
The above described preparation yields micro-suspensions of the compounds of formula I with particle sizes between 1 and 10 μm. The suspensions are suitable for oral applications and were used in the in vivo pharmacokinetic testings described below.
To male NMRI mice of 29–35 g body weight the compounds according to this invention were given p.o. as micro-suspensions (7.5% modified gelatine and 0.22% NaCl) in doses of 30 mg/kg (Drug concentration: 3 mg/mL. Administered volume: 10 mL/kg) and as single dose administration. Study Protocol:
Animals were fasted overnight up to 4 hrs. after administration of the compound. For each single p.o. dose the mice were allocated to 3 groups with 4 animals each. Blood samples are taken from group 1 at 0.5, 3 and 24 hours, from group 2 at 1 and 6 hours, and from group 3 at 2 and 8 hours.
Blood samples of about 200 μl were obtained by retro-orbital puncture. Plasma samples were obtained from heparinized/EDTA blood by centrifugation at room temperature, and stored frozen at −20° C. until analysis.
Plasma was deproteinated and subsequently analysed for plasma levels of the compound by a compound specific HPLC-MS method. WinNonlin™ was used to calculate the pharmacokinetic parameters.

T1 sequence (P06239 whole entry, species assumed): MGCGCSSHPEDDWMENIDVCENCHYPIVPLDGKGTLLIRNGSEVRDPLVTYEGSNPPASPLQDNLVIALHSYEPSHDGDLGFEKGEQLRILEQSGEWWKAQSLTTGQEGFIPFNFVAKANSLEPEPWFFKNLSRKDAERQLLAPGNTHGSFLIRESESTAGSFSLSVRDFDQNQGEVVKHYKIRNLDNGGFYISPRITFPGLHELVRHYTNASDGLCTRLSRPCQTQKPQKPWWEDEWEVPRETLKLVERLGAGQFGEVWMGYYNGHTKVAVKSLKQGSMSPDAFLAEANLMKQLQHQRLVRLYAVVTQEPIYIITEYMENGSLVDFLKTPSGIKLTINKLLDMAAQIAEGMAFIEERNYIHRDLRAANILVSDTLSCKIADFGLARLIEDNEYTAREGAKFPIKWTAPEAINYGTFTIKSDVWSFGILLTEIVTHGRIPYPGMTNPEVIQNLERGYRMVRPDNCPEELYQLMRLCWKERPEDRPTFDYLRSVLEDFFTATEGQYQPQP

In the case of `CC1c2cnc(Nc3ccc4c(c3)S(=O)(=O)CCO4)nc2N(C)C(=O)N1c1ccccc1Br` (single isomer, unassigned; enantiomer 1) [Example 8a, 3-(2-Bromo-phenyl)-7-(4,4-dioxo-3,4-dihydro-2H-4λ^6-benzo[1,4]oxathiin-6-ylamino)-1,4-dimethyl-3,4-dihydro-1H-pyrimido[4,5-d]pyrimidin-2-one; enantiomer 1], the IC50 on Lck (p56^lck) worked out at 8.1 nM; on Src (p60^c-src), 0.4 nM.

As to `CC1c2cnc(Nc3ccc4c(c3)S(=O)(=O)CC(=O)N4C)nc2N(C)C(=O)N1c1ccccc1Br` (single isomer, unassigned; enantiomer 1) [Example 13-52, 3-(2-Bromo-phenyl)-1,4-dimethyl-7-(4-methyl-1,1,3-trioxo-1,2,3,4-tetrahydro-1λ^6-benzo[1,4]thiazin-7-ylamino)-3,4-dihydro-1H-pyrimido[4,5-d]pyrimidin-2-one; enantiomer 1], the IC50 stood at 0.0246 nM at Lck (p56^lck) and 0.019 nM on Src (p60^c-src).

On to `CC1c2cnc(Nc3ccc4c(c3)S(=O)(=O)CCO4)nc2N(C)C(=O)N1c1ccccc1Br` (single isomer, unassigned; enantiomer 2) [Example 13-50, 3-(2-Bromo-phenyl)-7-(4,4-dioxo-3,4-dihydro-2H-4λ^6-benzo[1,4]oxathiin-6-ylamino)-1,4-dimethyl-3,4-dihydro-1H-pyrimido[4,5-d]pyrimidin-2-one; enantiomer 2], for which the results for the IC50 at Lck (p56^lck) and on Src (p60^c-src) were 1340 nM and 2970 nM, respectively.

For the molecule `CC1c2cnc(Nc3ccc4c(c3)S(=O)(=O)CC(=O)N4C)nc2N(C)C(=O)N1c1ccccc1Br` (single isomer, unassigned; enantiomer 2) [Example 13-51, 3-(2-Bromo-phenyl)-1,4-dimethyl-7-(4-methyl-1,1,3-trioxo-1,2,3,4-tetrahydro-1λ^6-benzo[1,4]thiazin-7-ylamino)-3,4-dihydro-1H-pyrimido[4,5-d]pyrimidin-2-one; enantiomer 2], the IC50 on Lck (p56^lck) worked out at 1280 nM; on Src (p60^c-src), 2520 nM.

Consider `CC(=O)N1CCC2(CC1)Oc1ccc(Nc3ncc4c(n3)N(C)C(=O)N(c3ccccc3Br)C4)cc1O2` [Example 6, 3-(2-bromo-phenyl)-3,4-dihydro-7-(1′-acetyl-spiro[1,3-benzodioxolo-2,4′-piperidine]-5-yl)amino-1-methyl-pyrimido[4,5-d]pyrimidin-2(1H)-one], for which the “AUC = area under the curve from T = 0 to T = 24 hrs” value in data set [1] was 315 (h * ng/ml))/(mg/kg).

With `CN1C(=O)N(c2c(F)cccc2Br)Cc2cnc(Nc3ccc4c(c3)S(=O)(=O)CCO4)nc21` [Example 8, 3-(2-bromo-6-fluoro-phenyl)-7-(4,4-dioxo-3,4-dihydro-2H-4λ^6-benzo[1,4]oxathiin-6-ylamino)-1-methyl-3,4-dihydro-1H-pyrimido[4,5-d]pyrimidin-2-one], the IC50 was 4.7 nM on Lck (p56^lck) and 1.8 nM on Src (p60^c-src).

In the case of `CN1CCS(=O)(=O)c2cc(Nc3ncc4c(n3)N(C)C(=O)N(c3c(F)cccc3Br)C4)ccc21` [Example 11, 3-(2-bromo-6-fluoro-phenyl)-1-methyl-7-(4-methyl-1,1-dioxo-1,2,3,4-tetrahydro-1lambda*6*-benzo[1,4]thiazin-7-ylamino)-3,4-dihydro-1H-pyrimido[4,5-d]pyrimidin-2-one], the results for the IC50 at Lck (p56^lck) and on Src (p60^c-src) were 4.3 nM and 0.8 nM, respectively.

For the molecule `CN1Cc2ccc(Nc3ncc4c(n3)N(C)C(=O)N(c3ccccc3Br)C4)cc2C1` [Example 13-3, 3-(2-bromo-phenyl)-1-methyl-7-(2-methyl-2,3-dihydro-1H-isoindol-5-ylamino)-3,4-dihydro-1H-pyrimido[4,5-d]pyrimidin-2-one; hydrochloride salt], the IC50 at Lck (p56^lck) amounted to 4.2 nM; on Src (p60^c-src) it was 1.5 nM.

As to `CN1C(=O)N(c2ccccc2Br)Cc2cnc(Nc3ccc4c(c3)S(=O)(=O)CO4)nc21` [Example 13-4, 3-(2-bromo-phenyl)-7-(3,3-dioxo-2,3-dihydro-3lambda*6*-benzo[1,3]oxathiol-5-ylamino)-1-methyl-3,4-dihydro-1H-pyrimido[4,5-d]pyrimidin-2-one], the IC50 on Lck (p56^lck) was 29.4 nM; on Src (p60^c-src), 17 nM.

Regarding `CN1C(=O)N(c2ccccc2Br)Cc2cnc(Nc3ccc4c(c3)OCO4)nc21` [Example 13-8, 7-(benzo[1,3]dioxol-5-ylamino)-3-(2-bromo-phenyl)-1-methyl-3,4-dihydro-1H-pyrimido[4,5-d]pyrimidin-2-one], the values for the IC50 on Lck (p56^lck) and at Src (p60^c-src) were 20 nM and 17 nM, respectively.

As to `CN1C(=O)c2ccc(Nc3ncc4c(n3)N(C)C(=O)N(c3c(F)cccc3Br)C4)cc2C1=O` [Example 13-16, 5-[6-(2-bromo-6-fluoro-phenyl)-8-methyl-7-oxo-5,6,7,8-tetrahydro-pyrimido[4,5-d]pyrimidin-2-ylamino]-2-methyl-isoindole-1,3-dione], the IC50 on Lck (p56^lck) amounted to 21 nM; at Src (p60^c-src) it was 11 nM.

Consider `O=C1CS(=O)(=O)c2cc(Nc3ncc4c(n3)NC(=O)N(c3c(F)cccc3Br)C4)ccc2N1` [Example 13-29], for which the IC50 on Lck (p56^lck) was 6.7 nM; on Src (p60^c-src) it was 2.5 nM.

In the case of `COc1ccc(Br)c(N2Cc3cnc(Nc4ccc5c(c4)S(=O)(=O)CCO5)nc3N(C)C2=O)c1` [Example 13-48, 3-(2-Bromo-5-methoxy-phenyl)-7-(4,4-dioxo-3,4-dihydro-2H-4λ^6-benzo[1,4]oxathiin-6-ylamino)-1-methyl-3,4-dihydro-1H-pyrimido[4,5-d]pyrimidin-2-one], the IC50 was found to be 37.5 nM at Lck (p56^lck) and 72.8 nM at Src (p60^c-src).

With `COc1cccc(F)c1N1Cc2cnc(Nc3ccc4c(c3)S(=O)(=O)CCO4)nc2N(C)C1=O` [Example 13-49, 7-(4,4-Dioxo-3,4-dihydro-2H-4λ^6-benzo[1,4]oxathiin-6-ylamino)-3-(2-fluoro-6-methoxy-phenyl)-1-methyl-3,4-dihydro-1H-pyrimido[4,5-d]pyrimidin-2-one], the IC50 on Lck (p56^lck) was determined as 5.4 nM; at Src (p60^c-src) it was 7.2 nM.

Regarding `CN1C(=O)N(c2c(F)cccc2C#N)Cc2cnc(Nc3ccc4c(c3)S(=O)(=O)CCO4)nc21` [Example 13-53, 2-[7-(4,4-Dioxo-3,4-dihydro-2H-4λ^6-benzo[1,4]oxathiin-6-ylamino)-1-methyl-2-oxo-1,4-dihydro-2H-pyrimido[4,5-d]pyrimidin-3-yl]-3-fluoro-benzonitrile], the IC50 worked out at 12.9 nM on Lck (p56^lck) and 4.3 nM at Src (p60^c-src).

In the case of `CCN(CC)CCOc1ccc(Nc2ncc3c(n2)N(C)C(=O)N(c2ccccc2Br)C3)cc1` [Reference cpd 43 from WO 00/24744A, 3-(2-bromo-phenyl)-7-[4-(2-diethylamino-ethoxy)-phenylamino]-1-methyl-3,4-dihydro-1H-pyrimido[4,5-d]pyrimidin-2-one, reference compound], the “AUC = area under the curve from T = 0 to T = 24 hrs” value in data set [1] is listed as 69.3 (h * ng/ml))/(mg/kg).
